We go through 2 compounds from patent US4579730A (Hadassah Medical Organization, priority 1983, dated 1986).

Assay [1] in a line: Function of sodium cholate as bile acid carrier of insulin and protease inhibitor agent.
The test system of assay [2] is diabetic dog. Briefly: Glucose levels in a diabetic dog after administration of insulin (oral enterocoated capsule; intramuscular comparison). It counts as in vivo. The conditions noted are these: 0.5 u/kg intramuscular injection.
Assay [3] relates to blood glucose levels. The conditions noted are these: insulin mixed with bile salts, through the rectum, dose of 48 μ/kg; cited from earlier work.

As to `C[C@H](CCC(=O)[O-])[C@H]1CC[C@H]2[C@@H]3[C@H](O)C[C@@H]4C[C@H](O)CC[C@]4(C)[C@H]3C[C@H](O)[C@]12C.[Na+]` [sodium cholate], the “function as bile acid carrier of the insulin and protease inhibitor agent” value in assay [1] was “can simultaneously function both as the bile acid carrier of the insulin and the protease inhibitor agent”.
As for Insulin, the Glucose in assay [2] (0 min) was determined as 28.7 mm; in assay [2] (10 min), 23.3 mm; in assay [2] (20 min) it was 21.5 mm; in assay [2] (30 min), 19.9 mm; in assay [2] (45 min), 15.6 mm; in assay [2] (60 min) it was 12.9 mm. Also, the Glucose in assay [2] (75 min) turned out to be 10.9 mm; in assay [2] (90 min), 8.5 mm; in assay [2] (120 min), 6.5 mm; in assay [2] (150 min), 6.4 mm; in assay [2] (180 min), 6.5 mm. The “reduction of blood glucose levels” value in assay [3] is given as “approximately 50%”.
